Values joined by “and” are separate entries in the source; they are usually repeats but may differ in a detail not shown here. Equal entries are not always repeated.
Test system: imiquimod-induced psoriasis
Test: Imiquimod-induced psoriasis model
Type: in vivo, mice
Design: Spleen Weight / Spleen Weight Ratio: unit not given here
Details: for PASI Scores: IMI + Clobetasol 0.05%; for Mean scores of the presence of erythema on the skin of animals at the area of induction of psoriasis / Mean scores of the presence of induration on the skin of animals at the area of induction of psoriasis / Mean scores of the presence of peeling on the skin of animals at the area of induction of psoriasis: mean ± SEM
Excerpt: Imiquimod-induced psoriasis is a model of psoriasis in mice that induces psoriasis-like dermatitis. The pathology closes resembles human plaque-type psoriasis and is a valuable tool for testing new therapies against psoriasis. […] Compound A was formulated in a 5% DMSO/40% PEG-400/55% (0.9% NaCl w/v water) solution (Table 2F). Experimental groups for the study are outlined in Table 4. Prior to study initiation, the backs of all animals in the study were depilated to allow for induction of psoriasis and monitoring of disease progression.
Once assigned to experimental groups, on Day 1 and continuing through Day 14, topical imiquimod (IMI; Aldara™ containing 5% Imiquimod) was administered to the dorsal depilated animals, and animals in group 1 received topical administration of Excipial® hydrocream (65 mg). […] Clobetasol was applied topically for animals in group 11.
Body weights were recorded three times a week from Day 1 to Day 8, and daily from Day 8 until the study end at Day 15. At termination on D15 the spleen weight ratio was determined. Disease severity was assessed using the psoriasis area severity index (PASI) daily from Day 8 until study completion on Day 15. The PASI score was calculated based on three parameters (presence of erythema, induration of the skin, and peeling of the skin at the area of induction) on a scale of 0 to 4 (0=no more or absence, 1=low, 2=moderate, 3=high, 4=severe). The PASI score for each animal was calculated as the sum of the score of each parameter measured. The score of the use of enrichment (SUE) was also assessed daily from Day 8 to Day 15. At study completion on Day 15, animal behavior was evaluated using an open field to assess distance travelled, number scratching, and licking and rearing performed in 10 minutes. Upon study termination animals were sacrificed, the spleen was excised and weighed, and blood samples were collected. Serum was isolated from the blood sample for cytokine and other biomarker analysis. IL-1B, IL-6, IL-17, and TNF-α assayed using simple plex technique on an ELLA automated immunoassay system. IL-22 and IL-23 were assayed by ELISA.
The imiquimod-induced model of psoriasis was used to assess the efficacy of Compound A in treating psoriasis. […] Treatment started on Day 8 after induction so reference to day 1 of treatment is to Day 8 and day 7 of treatment is to Day 14.

[1] = IMI-psoriasis model, behavioral evaluation D15, 0.05%, individual animals
[2] = IMI-psoriasis model, behavioral evaluation, 0.05%, individual animals
[3] = IMI-psoriasis model, mice, 0.05%, individual animals
[4] = IMI + 0.05%, D8 (before start of treatment)

SMILES: C[C@H]1C[C@H]2[C@@H]3CCC4=CC(=O)C=C[C@]4(C)[C@@]3(F)[C@@H](O)C[C@]2(C)[C@@]1(O)C(=O)CCl [Clobetasol, reference compound]
- Body Weight D1 (IMI + 0.05%, Day 1 (before treatment start on Day 8), individual animals): 17.07 and 17.52 and 19.31 and 18.57 and 18.72 and 16.56 and 17.64 and 16.77
- Body Weight D3 (IMI + 0.05%, Day 3 (before treatment start on Day 8), individual animals): 14.93 and 16.02 and 17.76 and 17.57 and 17.77 and 14.09 and 14.81 and 14.86
- Body Weight D5 (IMI + 0.05%, Day 5 (before treatment start on Day 8), individual animals): 16.15 and 15.56 and 18.21 and 17.74 and 16.72 and 15.29 and 15.64 and 15.11
- Body Weight D7 (IMI + 0.05%, Day 7 (before treatment start on Day 8), individual animals): 15.51 and 15.49 (2×) and 18.30 and 17.72 and 17.41 and 15.14 and 16.24
- Body Weight D8 (IMI + 0.05%, Day 8 (first day of treatment), individual animals): 15.82 and 15.39 and 18.05 and 17.68 and 16.64 and 14.96 and 16.14 and 14.67
- Body Weight D9 (IMI + 0.05%, Day 9, individual animals): 15.95 and 14.96 and 17.53 and 16.98 and 15.65 and 14.35 and 14.99 and 14.71
- Body Weight D10 (IMI + 0.05%, Day 10, individual animals): 15.11 and 14.48 and 17.43 and 16.38 and 15.37 and 14.04 and 14.71 and 14.32
- Body Weight D11 (IMI + 0.05%, Day 11, individual animals): 15.27 and 14.85 and 17.41 and 16.38 and 15.58 and 13.84 and 14.92 and 14.21
- Body Weight D12 (IMI + 0.05%, Day 12, individual animals): 14.64 and 14.74 and 17.02 and 15.95 and 15.45 and 13.69 and 15.73 and 14.31
- Body Weight D13 (IMI + 0.05%, Day 13, individual animals): 14.45 and 14.82 and 16.74 and 15.71 and 15.24 and 13.39 and 14.65 and 14.05
- Body Weight D14 (IMI + 0.05%, Day 14, individual animals): 14.55 and 14.89 and 16.65 and 15.49 and 15.08 and 13.55 and 14.66 and 14.04
- Body Weight D15 (IMI + 0.05%, Day 15, individual animals): 14.30 and 14.75 and 16.22 and 15.41 and 14.99 and 13.32 and 14.54 and 14.22
- MBWC D1-D8 (IMI + 0.05%, body weight change Day 1 to Day 8 (before treatment), individual animals): −1.25 and −2.13 and −1.26 and −0.89 and −2.08 and −1.60 and −1.50 and −2.10
- MBWC D8-D15 (IMI + 0.05%, body weight change Day 8 to Day 15 (treatment period), individual animals): −1.52 and −0.64 and −1.83 and −2.27 and −1.65 and −1.64 and −1.60 and −0.45
- PASI Scores (D8 (day treatment started), individual animals): 7 (5×) and 8 (3×)
- PASI Scores (D9, individual animals): 6 (2×) and 4 (4×) and 5 (2×)
- PASI Scores (D10, individual animals): 3 (5×) and 2 (2×) and 4
- PASI Scores (D11, individual animals): 0 (5×) and 1 and 2 (2×)
- PASI Scores (D12, individual animals): 1 (6×) and 0 (2×)
- PASI Scores (D13, individual animals): 1 (3×) and 0 (5×)
- PASI Scores (D14, individual animals): 0 (7×) and 1
- PASI Scores (D15, individual animals): 0 (7×) and 1
- Use Enrichment D1 (IMI-psoriasis model, D1, 0.05%, per cage (two animals)): 4.0
- Use Enrichment D9 (IMI-psoriasis model, D9, 0.05%, per cage (two animals)): 2.0 and 1.5 and 1.0
- Use Enrichment D10 (IMI-psoriasis model, D10, 0.05%, per cage (two animals)): 4.0 and 3.5 and 3.0
- Use Enrichment D11 (IMI-psoriasis model, D11, 0.05%, per cage (two animals)): 4.0 and 3.0
- Use Enrichment D13 (IMI-psoriasis model, D13, 0.05%, per cage (two animals)): 4.0 and 3.5
- Use Enrichment D14 (IMI-psoriasis model, D14, 0.05%, per cage (two animals)): 4.0
- Use Enrichment D15 (IMI-psoriasis model, D15, 0.05%, per cage (two animals)): 4.0
- Number Licking [1]: 1 (2×) and 2 (4×) and 5 (2×)
- Number Licking + Scratching [1]: 1 (2×) and 2 (4×) and 5 (2×)
- Number Scratching [1]: 0
- Distance Traveled [2]: 9 m (2×) and 5 m and 10 m (3×) and 15 m and 16 m
- Number Rearings [2]: 10 and 6 (2×) and 31 and 19 and 4 and 39 and 25
- Use Enrichment Mean D1-D8 (IMI-psoriasis model, mean D1-D8, 0.05%, per cage (two animals)): 2.50 and 2.75 and 2.25
- Use Enrichment Mean D8-D15 (IMI-psoriasis model, mean D8-D15, 0.05%, per cage (two animals)): 3.71 and 3.50 and 2.86 and 3.14
- Spleen Weight [3]: 39.92 and 30.38 and 50.46 and 44.29 and 37.25 and 36.61 and 35.08 and 34.69
- Spleen Weight Ratio [3]: 279.16 and 205.97 and 311.10 and 287.41 and 248.50 and 274.85 and 241.27 and 243.95
- Mean scores of the presence of erythema on the skin of animals at the area of induction of psoriasis [4]: 2.3 ± 0.2
- Mean scores of the presence of induration on the skin of animals at the area of induction of psoriasis [4]: 2.8 ± 0.2
- Mean scores of the presence of peeling on the skin of animals at the area of induction of psoriasis [4]: 2.4 ± 0.2
- Mean scores of the presence of erythema on the skin of animals at the area of induction of psoriasis (IMI + 0.05%, D9): 1.8 ± 0.2
- Mean scores of the presence of induration on the skin of animals at the area of induction of psoriasis (IMI + 0.05%, D9): 1.3 ± 0.2
- Mean scores of the presence of peeling on the skin of animals at the area of induction of psoriasis (IMI + 0.05%, D9): 1.8 ± 0.3
- Mean scores of the presence of erythema on the skin of animals at the area of induction of psoriasis (IMI + 0.05%, D10): 1.0 ± 0.2
- Mean scores of the presence of induration on the skin of animals at the area of induction of psoriasis (IMI + 0.05%, D10): 1.0 ± 0.0
- Mean scores of the presence of peeling on the skin of animals at the area of induction of psoriasis (IMI + 0.05%, D10): 0.9 ± 0.1
- Mean scores of the presence of erythema on the skin of animals at the area of induction of psoriasis (IMI + 0.05%, D11): 0.3 ± 0.2
- Mean scores of the presence of induration on the skin of animals at the area of induction of psoriasis (IMI + 0.05%, D11): 0.0 ± 0.0
- Mean scores of the presence of peeling on the skin of animals at the area of induction of psoriasis (IMI + 0.05%, D11): 0.4 ± 0.2
- Mean scores of the presence of erythema on the skin of animals at the area of induction of psoriasis (IMI + 0.05%, D12): 0.0 ± 0.0
- Mean scores of the presence of induration on the skin of animals at the area of induction of psoriasis (IMI + 0.05%, D12): 0.0 ± 0.0
- Mean scores of the presence of peeling on the skin of animals at the area of induction of psoriasis (IMI + 0.05%, D12): 0.8 ± 0.2
- Mean scores of the presence of erythema on the skin of animals at the area of induction of psoriasis (IMI + 0.05%, D13): 0.0 ± 0.0
- Mean scores of the presence of induration on the skin of animals at the area of induction of psoriasis (IMI + 0.05%, D13): 0.0 ± 0.0
- Mean scores of the presence of peeling on the skin of animals at the area of induction of psoriasis (IMI + 0.05%, D13): 0.4 ± 0.2
- Mean scores of the presence of erythema on the skin of animals at the area of induction of psoriasis (IMI + 0.05%, D14): 0.0 ± 0.0
- Mean scores of the presence of induration on the skin of animals at the area of induction of psoriasis (IMI + 0.05%, D14): 0.0 ± 0.0
- Mean scores of the presence of peeling on the skin of animals at the area of induction of psoriasis (IMI + 0.05%, D14): 0.1 ± 0.1
- Mean scores of the presence of erythema on the skin of animals at the area of induction of psoriasis (IMI + 0.05%, D15): 0.0 ± 0.0
- Mean scores of the presence of induration on the skin of animals at the area of induction of psoriasis (IMI + 0.05%, D15): 0.0 ± 0.0
- Mean scores of the presence of peeling on the skin of animals at the area of induction of psoriasis (IMI + 0.05%, D15): 0.1 ± 0.1
- Mean PASI Scores in IMI-Psoriasis Model (mice, IMI + 0.05%, D8 (before start of treatment)): 7.4 ± 0.2
- Mean PASI Scores in IMI-Psoriasis Model (mice, IMI + 0.05%, D9): 4.8 ± 0.3
- Mean PASI Scores in IMI-Psoriasis Model (mice, IMI + 0.05%, D10): 2.8 ± 0.2
- Mean PASI Scores in IMI-Psoriasis Model (mice, IMI + 0.05%, D11): 0.6 ± 0.3
- Mean PASI Scores in IMI-Psoriasis Model (mice, IMI + 0.05%, D12): 0.8 ± 0.2
- Mean PASI Scores in IMI-Psoriasis Model (mice, IMI + 0.05%, D13): 0.4 ± 0.2
- Mean PASI Scores in IMI-Psoriasis Model (mice, IMI + 0.05%, D14): 0.1 ± 0.1
- Mean PASI Scores in IMI-Psoriasis Model (mice, IMI + 0.05%, D15): 0.1 ± 0.1

Reference: US20260217701A1, “SELECTIVE BET INHIBITORS AND USES THEREOF” (Tay Therapeutics Limited, priority 2022, published 2026)
